Data set [1] in a line: controlled trials in cancer patients: percentage of patients showing a skeletal related adverse event. The class given is in vivo, human. How it is done:
The 4 mg dose of zoledronic acid has been determined to be clinically effective in several controlled trials in cancer patients, with placebo or the bisphosphonate pamidronate as comparator.

A short description of data set [2]: renal adverse events (increase in serum creatinine over baseline) in clinical studies. The class given is in vivo, human.
Data set [3] in a line: pharmacokinetic study of zoledronic acid in cancer patients with bone metastases (plasma concentration, urinary excretion). The class given is in vivo, human. To be noted: for Cmax: human, plasma, intravenous. How it is done: FIG. 1. Plasma concentrations in patients after 4 mg zoledronic acid infused over 5 minutes and 15 minutes (mean data for n=5 patients in 4 mg/5 min group, n=7 patients in 4 mg/15 min group, study 503 [2]
• 1. The volume of 100 ml containing 4 mg zoledronic acid is infused over 15 minutes as an intravenous drip, which allows the drug to be administered at a uniform and precise rate. […] The pharmacokinetic parameters derived from the individual patients' plasma concentration versus time curves, and urinary excretion of drug are tabulated below.

The subject of data set [4] is osteoclastic bone resorption. Particulars: animal models, cited from earlier work.
Data set [5] in a line: renal adverse events (increase in serum creatinine over baseline) in clinical studies. The data set is classed as in vivo, human. Particulars: for incidence of renal adverse events / incidence of renal adverse events (patients with event / patients): 4 mg. How it is done:
The dose of 4 mg zoledronic acid infused over 15 minutes offers a safety advantage in terms of renal tolerability over the shorter infusion time of 5 minutes. The lower incidence of renal adverse events with zoledronic acid infused over 15 minutes versus 5 minutes is summarized below. Renal adverse events are defined as increases in a patient's serum creatinine over baseline, by ≦0.5 mg/dL if baseline <1.4 mg/dL, by ≦1 mg/dL if baseline […], by ≦2-fold irrespective of baseline value.

The test system of data set [6] is prostate cancer cell lines. Particulars: in vitro treatment; cited from earlier work.
Data set [7] relates to subcutaneous prostate cancer cell line tumours. To be noted: cited from earlier work.
The mark [8] stands for this setting: Study 10, breast cancer patients.
[9] abbreviates: Study 10, multiple myeloma patients.
Where [10] appears, read: 4 mg infused over 5 minutes, n = 5.
Where [11] appears, read: 4 mg infused over 15 minutes, n = 7.
[12] abbreviates: Study 10, breast cancer and multiple myeloma patients, 5 minutes infusion.
[13] abbreviates: Study 10, breast cancer and multiple myeloma patients, 15 minutes infusion.
Setting [14] is: Study 11, lung cancer patients, 5 minutes infusion.
[15] abbreviates: Study 11, lung cancer patients, 15 minutes infusion.
The mark [16] stands for this setting: Study 39, prostate cancer patients, 5 minutes infusion.
Setting [17] is: Study 39, prostate cancer patients, 15 minutes infusion.

On to `NCCC(O)(P(=O)(O)O)P(=O)(O)O` [pamidronate, disodium pamidronate], for which the “Percentage of patients showing a skeletal related adverse event” value in data set [1] (setting [8]) is 47%; in data set [1] (setting [9]), 49%. Besides, the “renal tolerability (incidence of renal adverse events)” value in data set [2] (90 mg infused over 2 hours) amounted to 8.2%.

In general, Cmax refers to the maximum level reached in the sampled fluid or tissue. In the case of `O=P(O)(O)C(O)(Cn1ccnc1)P(=O)(O)O` [zoledronic acid, 1-hydroxy-2-(imidazol-1-yl)ethane-1,1-diphosphonic acid], the “efficacy versus Aredia (disodium pamidronate) 90 mg dosed over 2-4 hours” value in data set [1] (4 mg infused over approximately 15 minutes) is given as “comparable efficacy”. Further, the “Percentage of patients showing a skeletal related adverse event” value is 42% in data set [1] (setting [8]); 47% in data set [1] (setting [9]); 42% in data set [1] (Study 11, hypercalcemic lung cancer patients); 33% in data set [1] (Study 11, hypercalcemic patients with other solid tumors); 33% in data set [1] (Study 39, prostate cancer patients). Further, in data set [1] (double blind, placebo-controlled clinical study, prostate cancer patients), the “efficacy over placebo in the treatment of bone metastases” value was “statistically significant efficacy benefit over placebo”. Besides, in data set [3] (4 mg), the “Differences in AUC, 15 minutes versus 5 minutes infusion” value is on record as “not significant”. Moreover, in data set [3] (4 mg), the “Differences in Ae, 15 minutes versus 5 minutes infusion” value is recorded as “not significant”. Also, the “Differences in mean Cmax, 15 minutes versus 5 minutes infusion” value in data set [3] (4 mg) is reported as “statistically significant”. Moreover, the “AUC 0-24 h” value is recorded as 378 ± 116 ngxh/ml in data set [3] (setting [10]) and 420 ± 218 ngxh/ml in data set [3] (setting [11]). Moreover, the “Ae 0-24 h (amount of drug excreted in urine)” value in data set [3] (setting [10]) is reported as 38.7 ± 6.34 % of dose; in data set [3] (setting [11]), 37.4 ± 17.0 % of dose. For the same compound, the Cmax in data set [3] (4 mg, 4 mg infused over 5 minutes, n = 5, cancer patients with bone metastases) was 403 ± 118 ng/mL; in data set [3] (4 mg, 4 mg infused over 15 minutes, n = 7, cancer patients with bone metastases) it was 264 ± 86 ng/mL. Moreover, in data set [4] (doses inhibiting bone resorption), the “impact on renal function” value is given as “no appreciable impact on renal function”. Besides, the “inhibition of osteoclastic bone resorption versus earlier generation bisphosphonates” value in data set [4] (doses that do not affect bone formation and mineralization) is given as “inhibits osteoclastic bone resorption more effectively than earlier generation bisphosphonates”. The “renal safety versus higher doses of zoledronic acid, 8 mg and 16 mg” value in data set [2] (4 mg infused over 15 minutes) was “improved renal safety”. For the same compound, the “renal safety versus 4 mg/5 minutes and higher zoledronic acid dose/15 minutes” value in data set [5] (4 mg/15 minutes) is “improved renal safety”. In addition, the “incidence of renal adverse events” value in data set [5] (setting [12]) is given as 13.2%; in data set [5] (setting [13]) it was 8.8%; in data set [5] (Study 10, breast cancer and multiple myeloma patients, 15 minutes infusion, listed as Zoledronic acid), 8.8%; in data set [5] (setting [14]), 16.4%; in data set [5] (setting [15]) it was 10.9%; in data set [5] (setting [16]), 19.8%. For the same compound, the “incidence of renal adverse events” value in data set [5] (setting [17]) turned out to be 15.2%. Further, the “incidence of renal adverse events (patients with event / patients)” value in data set [5] (setting [12]) was 36/272 patients; in data set [5] (setting [13]), 24/272 patients; in data set [5] (setting [14]), 10/61 patients; in data set [5] (setting [15]), 18/165 patients; in data set [5] (setting [16]) it was 22/111 patients; in data set [5] (setting [17]) it was 14/78 patients. Also, the “growth of prostate cancer cell lines” value in data set [6] is “significantly reduced the growth of the cell lines”. For the same compound, the tumour volume result in data set [7] is given as “no significant decrease in tumour volume”.

The values are drawn from patent US8324189B2, “Use of zolendronate for the manufacture of a medicament for the treatment of bone metabolism diseases” (Novartis Pharmaceuticals Corporation, priority 2001, dated 2012).
